The values that follow come from patent US10246489B2, “Peptide inhibitors of calcium oxalate monohydrate crystallization and uses thereof” (UNIVERSITY OF HOUSTON, priority 2013, dated 2019).

Assay [1] in a line: In situ calcium ion-selective electrode (ISE) measurement of COM crystallization. The settings on record: for percent reduction in COM growth rate: 20 μg/ml additive, supersaturated calcium oxalate S=5.4, stirred, ISE slope in first 40 min vs control. As to the method: The COM growth rate was measured as the slope (dCa/dt) of decreasing Ca^2+ concentration within the first 40 min of crystallization. […] The percent reduction in COM growth rate was calculated by comparing the ISE slopes of peptides and control using the formula, Percent Reduction=[1−(dCa/dt)peptide/(dCa/dt)control]×100%. Data are averages of 2 or 3 measurements (error bars equal two standard deviations);
COM crystals for bulk crystallization studies were synthesized using a reported procedure that produces micron-sized crystals with large basal (100) surfaces. COM crystals prepared with molar composition 0.7 mM CaCl2: 0.7 mM Na2C2O4: 150 mM NaCl are referred to as the control. Growth solutions prepared with peptides used 20 μg/ml of the additive (unless otherwise stated).
As such, measurements reported herein were conducted at a single peptide concentration (20 μg/ml) to assess COM growth inhibition. To facilitate comparison of peptides in Table 1, Applicants calculated the percent reduction in COM growth rate using the relative difference in ISE slopes (units of ppm Ca^2+ per time) for peptide and control samples during the first 40 min of crystallization.
The slope of ISE curves (FIG. 2A) is the temporal change in free Ca^2+ concentration due to COM nucleation (primary and secondary) and crystal growth. Deconvoluting these two processes (nucleation and growth) from ISE data is nontrivial, particularly if one wishes to extract detailed kinetic information of COM growth rates. […] In the current study, the distinct advantage of ISE compared to more traditional approaches is its ease of use and the rapid time for data acquisition that enables high-throughput analysis of large peptide libraries.
A quantitative comparison of peptide efficacy for inhibiting COM crystallization was performed using in situ ISE measurements. The percent inhibition in COM growth rate was calculated using the relative difference in ISE slopes in the presence of 20 μg/mL peptide. […] The effect of Asp with Glu in peptide sequences was measured on COM growth inhibition (Table 2).

For assay [2] the following is noted: Wang et al. [11]; similar citrate concentration, lower supersaturation S=1.3; cited from earlier work.
A short description of assay [3]: Kinetic studies of COM growth at 60° C. using the calcium assay over 24 hours. The settings on record: 20 μg/mL peptide, 24-hour period. How it is done:
A second library of peptides containing glutamic acid (E) and alanine (A) amino acids was synthesized. The sequences of E-peptides shown in Table 2 were used in bulk crystallization studies and kinetic studies to assess their role as growth inhibitors or promoters of COM crystallization. […] These analyses were performed using the calcium assay to track the kinetics of crystallization over a 24-hour period. The calcium ion concentration in the supernatant solution was assessed at periodic times.
(§1) Free calcium concentration in the crystallization solution was measured by a colorimetric assay using Quantichrome DICA 500 Calcium assay kit (BioAssay Systems, Hayward, Calif.). Standard solutions (0, 0.1, 0.2, 0.3, 0.4, 0.5, and 1 mM) were prepared using calcium solutions provided with the kit. Detection reagent was prepared by mixing equal volumes of reagent A and reagent B according to manufacturer's instructions. A 10 μL sample was withdrawn from the top of each crystallization well without disturbing the bottom and dispensed into a 96-well microplate. 100 μL of detection reagent was added to each well and incubated for 3 minutes at room temperature. The absorbance was measured at 612 nm using Biotek Synergy H4 microplate reader (BioTek, Winooski, Vt.). Calcium concentration was determined using a calibration curve prepared from standard calcium solutions.

Assay [4] is described as follows: High-throughput colorimetric calcium depletion assay (crystallization half-time). The note with it: 37° C., crystallization volume 600 μL, shaking; logistic fit. As to the method: as §1
Time course of depletion of free calcium in the crystallization solution, normalized to the initial concentration, was fitted to a nonlinear logistic function using OriginPro Software (Origin Lab, Northhampton, Mass.). The logistic function relating calcium concentration to time is given by
where [Ca]t is the normalized calcium concentration at time t, A1 is the normalized initial supersaturation concentration (i.e at t=0), A2 is the normalized equilibrium concentration (i.e. at t=∞), p is the hill coefficient which represents slope of the curve at midpoint, and t1/2 is the crystallization half-time (CHT), defined as the time at which crystallization is 50% complete (i.e. [Ca]t1/2=[…]). A1 was fixed at 1, and A2, p and t1/2 were obtained from fitting the data to equation 1. CHT was used as a measure of inhibition potentials of the peptides. A one-way ANOVA in combination with Tukey post hoc test at p<0.05 level was used to probe statistical significance. Applicants' studied the effects of experimental parameters including volume, shaking and temperature on crystallization in designing a high-throughput screening assay. Applicants have shown the logistic model effectively represents the three phases: induction, crystal growth and equilibrium observed in our setup, and CHT (t1/2) can be used as a measure of efficacy of potential crystal growth modifiers. The peptide library screened comprised of Asp and Ala residues (peptides D1-D13) at optimized assay conditions of 37° C., crystallization volume of 600 μL in a shaking environment. […] The high throughput of the assay provides the opportunity to assess the growth modulation potential of crystal growth modifiers at varying modifier concentrations, supersaturations and ionic strengths with relative ease. […] Finally, the assay can be translated to other crystallization systems in a relatively straightforward fashion for rational design and discovery of growth modifiers for specific applications.

A short description of assay [5]: Bulk crystallization studies of COM crystal size and habit (optical microscopy, SEM, AFM). How it is done: FIGS. 4A-4B show macroscopic characterization of COM crystals from bulk crystallization in solutions of 0.5 mM CaC2O4 and 20 μg/ml peptide. Optical microscopy was used to measure: Percent distribution of elongated hexagonal platelet (shaded bars) and diamond platelet (pattern bars) crystal morphologies (FIG. 4A); and length of the COM (100) basal surface measured along the direction (i.e. apical tip-to-tip distance) for hexagonal and diamond morphologies (FIG. 4B). Data in (FIG. 4A) and (FIG. 4B) are the average of three separate crystallization experiments performed at 60° C. for 3 days (error bars equal one standard deviation). Data for peptide D4 (diamond habit) was omitted based on too few crystals for statistical analysis;
COM crystals for bulk crystallization studies were synthesized using a reported procedure that produces micron-sized crystals with large basal (100) surfaces. COM crystals prepared with molar composition 0.7 mM CaCl2: 0.7 mM Na2C2O4: 150 mM NaCl are referred to as the control. Growth solutions prepared with peptides used 20 μg/ml of the additive (unless otherwise stated). The crystals were characterized by optical microscopy using a Leica DM2500-M microscope, scanning electron microscope (SEM) using a FEI 235 Dual-Beam Focused Ion-beam instrument, atomic force microscopy (AFM) using an Asylum MFP-3D-SA instrument (Santa Barbara, Calif.), and a calcium ion-selective electrode (ISE, ThermoScientific).
ISE measurements can be used to screen peptide efficacy, but provide little information regarding the specificity of peptide binding to different surfaces of COM crystals. To this end, Applicants used a second analysis step to identify the effect of peptides on COM crystal size and habit. The influence of the peptide library on macroscopic properties of COM crystals was assessed using bulk crystallization studies and optical and scanning electron microscopy to characterize COM crystals grown in the presence of peptides. In vitro, COM crystallization yields elongated hexagonal platelets with {100} basal surfaces bounded by {010} and crystallographically equivalent {121} apical surfaces (FIG. 3A). […] Applicants observed that multiple peptides in the library reduced growth along the directions, which decreased the crystal aspect ratio (length-to-width) and shifted the morphology from hexagonal to diamond platelets. This change in crystal habit can be attributed to the preferential binding of peptides to COM {121} surfaces, which slows growth along the naturally fast growth directions within the (100) plane.
To more systematically assess the surface topography of COM crystals, Applicants used atomic force microscopy (AFM) to probe the effect of peptides on COM (100) surface roughness. Crystals extracted from control and peptide D5 batches were prepared on AFM sample disks and imaged in air. The RMS roughness for (100) surfaces of hexagonal-shaped crystals from the control and test peptide D5 were approximately 1.0 and 4.3 nm, respectively.
Crystal batches prepared in bulk studies were analyzed using optical microscopy to quantify changes in COM crystal size and aspect ratio. […] Although there were clear differences in the percent population of diamond-shaped crystals among peptides tested in this study, Applicants observed that the size of diamond crystals were generally the same, irrespective of peptide sequence (FIG. 4B). The majority of COM hexagonal platelets in peptide samples had similar size and aspect ratio as the control (here Applicants only report the length of COM crystals in FIG. 4B). A notable exception, however, was peptide D4, which produced a 22% increase in the length-to-width aspect ratio of COM hexagonal crystals, and an increase in the length from 35 μm (control) to 75 μm (peptide D4).

“Also recorded” adds a separate entry of the source.

For `O=C(O)CC(O)(CC(=O)O)C(=O)O` [citrate, reference compound], the “percent reduction in COM growth rate” value in assay [1] turned out to be 28±6%. In addition, the “reduction in COM growth rate” value in assay [2] is reported as 48%.
Consider “A-E-A-E-A-E-A-E-A-E-A-E-A-E-A-E-A-E (AEAEAEAEAEAEAEAEAE; Synthesized Calcium oxalate monohydrate inhibitory polypeptide) [E10]”, for which the “inhibition of COM crystal growth (calcium in supernatant over time)” value in assay [3] was “inhibition of COM crystal growth; also recorded: more effective inhibitor than E11”.
Turning to “ADAADAADAADAADAADA (Synthesized Calcium oxalate monohydrate inhibitory polypeptide) [D4]”, in assay [4], the “CHT (hr), crystallization half-time” value was 4.432 h. Further, the “percent reduction in COM growth rate” value in assay [1] is on record as 20%. The “% inhibition” value in assay [1] (ISE slopes in the presence of 20 μg/mL peptide, comparison X = D vs X = E) amounted to 21 ± 10%. Further, the “[001] length of COM hexagonal crystals” value in assay [5] (20 μg/ml peptide, control 35 μm) amounted to 75 μm. For the same compound, the “increase in the length-to-width aspect ratio of COM hexagonal crystals” value in assay [5] (20 μg/ml peptide, vs control (2.67±0.05)) is 22%. The “COM crystal habit / morphology” value in assay [5] (SEM, bulk crystallization with 20 μg/ml peptide) is reported as “higher length-to-width aspect ratio”.
Turning to “ADAADDAADAADDAAAAA (Synthesized Calcium oxalate monohydrate inhibitory polypeptide) [D5]”, the “CHT (hr), crystallization half-time” value in assay [4] was found to be 4.641 h. Further, the “percent reduction in COM growth rate” value in assay [1] is listed as 30%. The “percentage of diamond-shaped crystals in total crystal population” value in assay [5] (20 μg/ml peptide, 60° C. for 3 days, optical microscopy, average of three experiments) is given as “largest populations of diamond-shaped crystals”. In addition, in assay [5] (AFM imaged in air), the “RMS roughness of diamond-shaped crystals” value amounted to 3.2 nm. Moreover, the “RMS roughness of (100) surfaces of hexagonal-shaped crystals” value in assay [5] (AFM imaged in air, control approximately 1.0 nm) is given as around 4.3 nm.
For the compound “E-E-E-E-E-E-E-E-E-E-E-E-E-E-E-E-E-E (EEEEEEEEEEEEEEEEEE; Synthesized Calcium oxalate monohydrate inhibitory polypeptide) [E11]”, the “inhibition of COM crystal growth (calcium in supernatant over time)” value in assay [3] is on record as “inhibition of COM crystal growth”.

Usually % inhibition stands for the change of the read-out against control, counted positive when it falls.
